Patent US9149038B2, “4-amino-6-(heterocyclic)picolinates and 6-amino-2-(heterocyclic)pyrimidine-4-carboxylates and their use as herbicides” (Dow AgroSciences LLC, priority 2013, dated 2015)
Read-outs that look alike come from different tables or passages of the source.

Assays:
[1] = test system: Key Broadleaf Weed and Crop Species; assay: Post-Emergent Test II: postemergent herbicidal activity, visual rating after 14 d (Table 7); format: in vivo; settings: post-emergence, 336 h; for pest or weed control at 35 g/ha: 35 g ai/ha; for pest or weed control at 70 g/ha: 70 g ai/ha; for pest or weed control at 140 g/ha: 140 g ai/ha
Summary of the method: (§1)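 Greenhouse-grown plants at the first or second true leaf stage (7-21 d, ~15 h photoperiod, 23-29° C day) were sprayed with compound in acetone/DMSO-based aqueous spray containing crop oil concentrate and Triton X-155 at 187 L/ha. Injury versus untreated plants was rated visually after 14 d on a 0-100 scale.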

[2] = test system: Key Grass and Sedge Weeds as well as Grass Crops; assay: Post-Emergent Test II: postemergent herbicidal activity, visual rating after 14 d (Table 8); format: in vivo; settings: post-emergence, 336 h; for pest or weed control at 35 g/ha: 35 g ai/ha; for pest or weed control at 70 g/ha: 70 g ai/ha; for pest or weed control at 140 g/ha: 140 g ai/ha
Summary of the method: as §1

[3] = lambsquarters (Chenopodium album), read-out: Visual Growth Reduction (%) 14 Days After Application CHEAL
[4] = oilseed rape, canola (Brassica napus), read-out: Visual Growth Reduction (%) 14 Days After Application BRSNN
[5] = redroot pigweed (Amaranthus retroflexus), read-out: Visual Growth Reduction (%) 14 Days After Application AMARE
[6] = sunflower (Helianthus annuus), read-out: Visual Growth Reduction (%) 14 Days After Application HELAN
[7] = velvetleaf (Abutilon theophrasti), read-out: Visual Growth Reduction (%) 14 Days After Application ABUTH
[8] = wild poinsettia (Euphorbia heterophylla), read-out: Visual Growth Reduction (%) 14 Days After Application EPHHL
[9] = barnyardgrass (Echinochloa crus-galli), read-out: Visual Growth Reduction (%) 14 Days After Application ECHCG
[10] = giant foxtail (Setaria faberi), read-out: Visual Growth Reduction (%) 14 Days After Application SETFA
[11] = maize, corn (Zea mays), read-out: Visual Growth Reduction (%) 14 Days After Application ZEAMX
[12] = rice (Oryza sativa), read-out: Visual Growth Reduction (%) 14 Days After Application ORYSA
[13] = wheat, spring (Triticum aestivum), read-out: Visual Growth Reduction (%) 14 Days After Application TRZAS
[14] = yellow nutsedge (Cyperus esculentus), read-out: Visual Growth Reduction (%) 14 Days After Application CYPES

Structure (SMILES) | pest or weed control at 35 g/ha [1, 3] | pest or weed control at 70 g/ha [1, 3] | pest or weed control at 140 g/ha [1, 3] | pest or weed control at 35 g/ha [1, 4] | pest or weed control at 70 g/ha [1, 4] | pest or weed control at 140 g/ha [1, 4] | pest or weed control at 35 g/ha [1, 5] | pest or weed control at 70 g/ha [1, 5] | pest or weed control at 140 g/ha [1, 5] | pest or weed control at 35 g/ha [1, 6] | pest or weed control at 70 g/ha [1, 6] | pest or weed control at 140 g/ha [1, 6] | pest or weed control at 35 g/ha [1, 7] | pest or weed control at 70 g/ha [1, 7] | pest or weed control at 140 g/ha [1, 7] | pest or weed control at 35 g/ha [1, 8] | pest or weed control at 70 g/ha [1, 8] | pest or weed control at 140 g/ha [1, 8] | pest or weed control at 35 g/ha [2, 9] | pest or weed control at 70 g/ha [2, 9] | also measured
COC(=O)c1nc(-c2cc3c(cc2F)OC(F)(F)O3)c(F)c(N)c1F [Compound 21] | 0 to 29% | 0 to 29% | 0 to 29% | 0 to 29% | 0 to 29% | 0 to 29% | 0 to 29% | 0 to 29% | 0 to 29% | 45 to 59% | 45 to 59% | 60 to 74% | 0 to 29% | 0 to 29% | 0 to 29% | 0 to 29% | 0 to 29% | 0 to 29% | 0 to 29% | 0 to 29% | pest or weed control at 140 g/ha [2, 9]: 0 to 29%; pest or weed control at 35 g/ha [2, 10]: 0 to 29%; pest or weed control at 70 g/ha [2, 10]: 0 to 29%; pest or weed control at 140 g/ha [2, 10]: 60 to 74%; pest or weed control at 35 g/ha [2, 11]: 0 to 29%; pest or weed control at 70 g/ha [2, 11]: 0 to 29%; pest or weed control at 140 g/ha [2, 11]: 45 to 59%; pest or weed control at 35 g/ha [2, 12]: 0 to 29%; pest or weed control at 70 g/ha [2, 12]: 0 to 29%; pest or weed control at 140 g/ha [2, 12]: 0 to 29%; pest or weed control at 35 g/ha [2, 13]: 0 to 29%; pest or weed control at 70 g/ha [2, 13]: 0 to 29%; pest or weed control at 140 g/ha [2, 13]: 0 to 29%; pest or weed control at 35 g/ha [2, 14]: 0 to 29%; pest or weed control at 70 g/ha [2, 14]: 0 to 29%; pest or weed control at 140 g/ha [2, 14]: 0 to 29%
Nc1nc(-c2cc3c(cc2F)OC(F)(F)O3)nc(C(=O)O)c1Cl [Compound 57] | 0 to 29% | 0 to 29% | 0 to 29% | 0 to 29% | 0 to 29% | 0 to 29% | 0 to 29% | 0 to 29% | 85 to 94% | 45 to 59% | 85 to 94% | 95 to 100% | 0 to 29% | 0 to 29% | 0 to 29% | 0 to 29% | 60 to 74% | 95 to 100% | 85 to 94% | 95 to 100% | pest or weed control at 140 g/ha [2, 9]: 95 to 100%; pest or weed control at 35 g/ha [2, 10]: 45 to 59%; pest or weed control at 70 g/ha [2, 10]: 0 to 29%; pest or weed control at 140 g/ha [2, 10]: 45 to 59%; pest or weed control at 35 g/ha [2, 11]: 0 to 29%; pest or weed control at 70 g/ha [2, 11]: 30 to 44%; pest or weed control at 140 g/ha [2, 11]: 45 to 59%; pest or weed control at 35 g/ha [2, 12]: 0 to 29%; pest or weed control at 70 g/ha [2, 12]: 0 to 29%; pest or weed control at 140 g/ha [2, 12]: 0 to 29%; pest or weed control at 35 g/ha [2, 13]: 0 to 29%; pest or weed control at 70 g/ha [2, 13]: 0 to 29%; pest or weed control at 140 g/ha [2, 13]: 30 to 44%; pest or weed control at 35 g/ha [2, 14]: 0 to 29%; pest or weed control at 70 g/ha [2, 14]: 0 to 29%; pest or weed control at 140 g/ha [2, 14]: 0 to 29%
COC(=O)c1nc(-c2ccc3c(c2F)OC(F)(F)O3)c(F)c(N)c1Cl [Compound 10] | 85 to 94% | 85 to 94% | 95 to 100% | 75 to 84% | 85 to 94% | 85 to 94% | 85 to 94% | 95 to 100% | 95 to 100% | 85 to 94% | 85 to 94% | 85 to 94% | 85 to 94% | 95 to 100% | 95 to 100% | 95 to 100% | 95 to 100% | 95 to 100% | 95 to 100% | 95 to 100% | pest or weed control at 140 g/ha [2, 9]: 95 to 100%; pest or weed control at 35 g/ha [2, 10]: 75 to 84%; pest or weed control at 70 g/ha [2, 10]: 95 to 100%; pest or weed control at 140 g/ha [2, 10]: 95 to 100%; pest or weed control at 35 g/ha [2, 11]: 60 to 74%; pest or weed control at 70 g/ha [2, 11]: 75 to 84%; pest or weed control at 140 g/ha [2, 11]: 75 to 84%; pest or weed control at 35 g/ha [2, 12]: 0 to 29%; pest or weed control at 70 g/ha [2, 12]: 0 to 29%; pest or weed control at 140 g/ha [2, 12]: 0 to 29%; pest or weed control at 35 g/ha [2, 13]: 45 to 59%; pest or weed control at 70 g/ha [2, 13]: 60 to 74%; pest or weed control at 140 g/ha [2, 13]: 60 to 74%; pest or weed control at 35 g/ha [2, 14]: 95 to 100%; pest or weed control at 70 g/ha [2, 14]: 95 to 100%; pest or weed control at 140 g/ha [2, 14]: 95 to 100%
COC(=O)c1nc(-c2ccc3c(c2)OC(C)(C)O3)c(F)c(N)c1Cl [Compound 8] | 45 to 59% | 75 to 84% | 85 to 94% | 60 to 74% | 60 to 74% | 75 to 84% | 0 to 29% | 45 to 59% | 60 to 74% | 0 to 29% | 45 to 59% | 85 to 94% | 95 to 100% | 95 to 100% | 95 to 100% | 95 to 100% | 95 to 100% | 95 to 100% | 95 to 100% | 95 to 100% | pest or weed control at 140 g/ha [2, 9]: 95 to 100%; pest or weed control at 35 g/ha [2, 10]: 85 to 94%; pest or weed control at 70 g/ha [2, 10]: 95 to 100%; pest or weed control at 140 g/ha [2, 10]: 95 to 100%; pest or weed control at 35 g/ha [2, 11]: 95 to 100%; pest or weed control at 70 g/ha [2, 11]: 95 to 100%; pest or weed control at 140 g/ha [2, 11]: 95 to 100%; pest or weed control at 35 g/ha [2, 12]: 0 to 29%; pest or weed control at 70 g/ha [2, 12]: 0 to 29%; pest or weed control at 140 g/ha [2, 12]: 30 to 44%; pest or weed control at 35 g/ha [2, 13]: 0 to 29%; pest or weed control at 70 g/ha [2, 13]: 30 to 44%; pest or weed control at 140 g/ha [2, 13]: 30 to 44%; pest or weed control at 35 g/ha [2, 14]: 95 to 100%; pest or weed control at 70 g/ha [2, 14]: 95 to 100%; pest or weed control at 140 g/ha [2, 14]: 95 to 100%
